According to patent US12116424B2, “Compounds and compositions for modulating Listeria virulence” (priority 2021, dated 2024):
Where two headings read alike, the source gives them in different places. Where a SMILES comes first, the peptide text is derived from it. Bridges are numbered along the chain shown (N, C = ends). [ ]: non-standard residue; d: D form. Dap = NC[C@H](N)C(=O)O

Target: L. monocytogenes AgrC (Listeria monocytogenes serovar 1/2a, UniProt Q8YAR5)
Assay: Fluorescence (agr-GFP) reporter agonism assay, ΔagrD reporter strain
Assay type: cell-based
Set-up: Emax: dose or concentration left out as unconfirmed
Details: for loss in potency: agonism, relative to native AIP
Excerpt: Construction of Listeria agr Reporter Strains. A gene block was designed and purchased from Integrated DNA Technologies to contain an EagI recognition site, the PII promoter of the agr system, the 3′ UTR of hly, super folder GFP, and a SaII recognition site. The gene block was digested with EagI and SaII, cloned into an EagI/SaII-cut pAM401 plasmid resulting in the plasmid pAM401-KW1, and then transformed into E. coli XL1-Blue competent cells. The insertion into pAM401 was confirmed using Kapa polymerase and primers DAP337 and DAP338, and additional confirmation via commercial sequencing. Purified plasmid was transformed into the conjugative E. coli S17 strain, which was used to conjugate to EGD-e and EGD-e ΔagrD to generate the agr-GFP reporter strains EGD-e:pAM401-KW1 and EGD-e ΔagrD:pAM401-KW1. Conjugation was verified using primers DAP337 and DAP338.
Fluorescence reporter assay protocol. For QS (agr) reporter assays, peptide stock solutions in DMSO (1 mM) were serially diluted in DMSO, and 2 μL of solution was added to each well in a black 96-well plate (polystyrene microtiter plate, Costar). Agonism assays utilized the ΔagrD reporter strain, with 2 μL of 100 μM AIP (final concentration 1 μM) as a positive control and 2 μL of DMSO as a negative control. Antagonism assays utilized the EGD-e reporter strain, with 2 μL of DMSO as a positive control. In both assays, wells containing only BHI media served as negative controls for normalization. An overnight culture of bacteria was diluted 1:50 in fresh BHI, then 198 μL were transferred to each well (excluding the media control wells). Plates were then incubated at 37° C. for 24 hours with shaking at 200 rpm. Fluorescence of GFP (excitation at 500 nm, emission at 540 nm) and OD600 of each well was measured using BioTek Synergy 2 plate reader. Measurements were processed by subtracting background fluorescence (BHI media), correcting by OD600, and the normalizing using the 1 μM AIP or the DMSO control for the agonism and antagonism assays, respectively. Non-linear regression curves were fitted to the data sets in GraphPad Prism 7 by using variable slope (four-parameter) dose-response analysis to obtain potency, efficacy, and statistical information about the activity of tested peptides. Each peptide was tested with three technical replicates and three biological replicates. All data derived from fluorescent reporter strains are represented with data points signifying the mean and error bars signifying the standard deviation from all replicates.
Preparation and Validation of Listeria agr Reporter Strains. In order to facilitate profiling the native AIP and its analogs for agr activity, L. monocytogenes agr GFP reporters were designed and constructed as described above (see Materials and General Methods). Briefly, a plasmid containing the agr promoter region upstream of gfp was transformed into wild-type (EGD-e) and ΔagrD L. monocytogenes strains. The wild-type reporter naturally produces its own AIP and is able to activate AgrC, which may subsequently phosphorylate AgrA for productive binding to DNA and triggering the production of GFP (FIG. 1A). The ΔagrD reporter, lacking the ability to produce its own AIP and thereby activate AgrC, is unable to trigger substantial production of GFP. However, adding exogenous AIP to the ΔagrD reporter results in an increase of fluorescence, indicating agr activity has been restored.

[1] = read-out: Max Activation Observed

Chain of L. monocytogenes AgrC (Q8YAR5 entry or part of it): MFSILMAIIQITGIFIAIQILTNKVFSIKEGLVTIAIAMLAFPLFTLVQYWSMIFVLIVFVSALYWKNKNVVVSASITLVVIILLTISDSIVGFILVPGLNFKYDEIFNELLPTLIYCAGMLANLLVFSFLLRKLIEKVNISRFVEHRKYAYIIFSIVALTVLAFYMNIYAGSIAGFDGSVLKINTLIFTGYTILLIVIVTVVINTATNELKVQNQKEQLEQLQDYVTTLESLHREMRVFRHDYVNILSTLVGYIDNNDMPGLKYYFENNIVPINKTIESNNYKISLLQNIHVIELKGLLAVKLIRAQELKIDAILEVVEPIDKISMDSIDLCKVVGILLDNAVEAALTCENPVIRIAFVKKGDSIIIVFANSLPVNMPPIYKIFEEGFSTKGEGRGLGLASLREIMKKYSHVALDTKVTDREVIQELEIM

CSCC[C@@H]1NC(=O)[C@H](Cc2ccccc2)NC(=O)[C@@H](NC(=O)[C@@H](N)CCCCN)CSC(=O)[C@H](C(C)C)NC(=O)[C@H](Cc2ccccc2)NC1=O [AIP A1K, K-(C-F-M-F-V)] (H-KCFMFV; thioester 2-C; N-terminus assumed)
Emax [1]: 80%
agonism activity (in words) (ΔagrD reporter): partial agonists with slightly diminished agonistic activity

CSCC[C@@H]1NC(=O)[C@H](Cc2ccccc2)NC(=O)[C@@H](NC(=O)[C@@H](N)[C@@H](C)O)CSC(=O)[C@H](C(C)C)NC(=O)[C@H](Cc2ccccc2)NC1=O [AIP A1T, T-(C-F-M-F-V)] (H-TCFMFV; thioester 2-C; N-terminus assumed)
Emax [1]: 88.1%
agonism activity (in words) (ΔagrD reporter): partial agonists with slightly diminished agonistic activity

CSCC[C@H]1NC(=O)[C@H](Cc2ccccc2)NC(=O)[C@H](NC(=O)[C@H](C)NC(=O)[C@@H](N)CCCCN)CSC(=O)[C@H](C(C)C)NC(=O)[C@H](Cc2ccccc2)NC1=O [7-mer C3dC/M5dM, K-A-(dC-F-dM-F-V)] (H-KA[dC]F[dM]FV; thioester 3-C; N-terminus assumed)
Emax [1]: 7.89%

CSCC[C@@H]1NC(=O)[C@H](Cc2ccccc2)NC(=O)[C@@H](NC(=O)[C@H](C)NC(=O)[C@H](CCCCN)NC(=O)[C@@H](N)CO)CSC(=O)[C@H](C(C)C)NC(=O)[C@H](Cc2ccccc2)NC1=O [Compound 8-mer, S-K-A-(C-F-M-F-V)] (H-SKACFMFV; thioester 4-C; N-terminus assumed)
Emax (read-out: Max Activation): 71.5%

CSCC[C@@H]1NC(=O)[C@H](Cc2ccccc2)NC(=O)[C@@H](NC(=O)[C@H](C)N)CSC(=O)[C@H](C(C)C)NC(=O)[C@H](CC(C)C)NC1=O [AIP F5L, A-(C-F-M-L-V)] (H-ACFMLV; thioester 2-C; N-terminus assumed)
Emax [1]: 64.8%

CC(C)C[C@@H]1NC(=O)CNC(=O)[C@H](C(C)C)NC(=O)[C@@H](NC(=O)[C@@H](N)CO)CSC(=O)[C@H](CO)NC1=O [L. kieliensis AIP, S-(C-V-G-L-S), reference compound] (H-SCVGLS; thioester 2-C; N-terminus assumed)
Emax (read-out: Max Activation): 10.4%

CSCC[C@@H]1NC(=O)[C@H](CO)NC(=O)[C@@H](NC(=O)[C@H](C)N)CSC(=O)[C@H](C)NC(=O)[C@H](Cc2ccccc2)NC1=O [L. grayi AIP, A-(C-S-M-F-A), reference compound] (H-ACSMFA; thioester 2-C; N-terminus assumed)
Emax (read-out: Max Activation): 10.7%

CSCC[C@H](NC(=O)[C@H](CO)NC(=O)[C@H](CO)NC(=O)[C@H](CC(=O)O)NC(=O)[C@H](C)NC(=O)[C@@H](N)C(C)C)C(=O)N[C@@H](CO)C(=O)N[C@@H](CCCCN)C(=O)N[C@@H](C)C(=O)N[C@H]1CSC(=O)[C@H](C(C)C)NC(=O)[C@H](Cc2ccccc2)NC(=O)[C@H](CCSC)NC(=O)[C@H](Cc2ccccc2)NC1=O [Compound 14-mcr, V-A-D-S-S-M-S-K-A-(C-F-M-F-V)] (H-VADSSMSKACFMFV; thioester 10-C; N-terminus assumed)
Emax (read-out: Max Activation): 105%

CC[C@H](C)[C@H](N)C(=O)N[C@@H](CC(N)=O)C(=O)N[C@H]1CSC(=O)[C@H](CC(C)C)NC(=O)[C@H](CC(C)C)NC(=O)[C@H](Cc2ccccc2)NC(=O)[C@H](C)NC1=O [Sa AIP-III D4A, I-N-(C-A-F-L-L), reference compound] (H-INCAFLL; thioester 3-C)
Emax (read-out: Max Activation): 12.3%

CC(C)C[C@@H]1NC(=O)[C@H](C(C)C)NC(=O)[C@@H](NC(=O)[C@@H](N)CO)CSC(=O)[C@H](CC(C)C)NC(=O)[C@H](Cc2c[nH]cn2)NC1=O [L. weihenstephanensis AIP, S-(C-V-L-H-L), reference compound] (H-SCVLHL; thioester 2-C; N-terminus assumed)
Emax (read-out: Max Activation): 11.2%

CSCC[C@@H]1NC(=O)[C@H](Cc2ccccc2)NC(=O)[C@H](NC(=O)[C@@H](N)CCCCN)CSC(=O)[C@H](C(C)C)NC(=O)[C@H](Cc2ccccc2)NC1=O [AIP A1K/C2dC, K-(dC-F-M-F-V)] (H-K[dC]FMFV; thioester 2-C; N-terminus assumed)
Emax [1]: 10.2%

CSCC[C@@H]1NC(=O)[C@H](Cc2ccccc2)NC(=O)[C@@H](NC(=O)[C@H](C)N)CNC(=O)[C@H](C(C)C)NC(=O)[C@H](Cc2ccccc2)NC1=O [AIP C2Dap, A-(Dap-F-M-F-V)] (H-A[Dap]FMFV; lactam 2-C; N-terminus assumed)
loss in potency: 10 fold
Emax [1]: 92.9%
agonism activity (in words) (ΔagrD reporter): largely retains the activation activity of the native AIP

CSCC[C@@H]1NC(=O)[C@H](Cc2ccccc2)NC(=O)[C@@H](N)CSC(=O)[C@H](C(C)C)NC(=O)[C@H](Cc2ccccc2)NC1=O [Compound 5-mer, (C-F-M-F-V)] (H-CFMFV; thioester 1-C)
loss in potency: ten-fold
Emax (read-out: Max Activation): 110%
agonism activity (in words) (ΔagrD reporter): fully maintained its agonism activity

CC[C@H](C)[C@@H]1NC(=O)[C@H](CC(C)C)NC(=O)[C@H](Cc2ccccc2)NC(=O)[C@@H](NC(=O)[C@@H](N)CO)CSC(=O)[C@H](Cc2ccccc2)NC1=O [L. newyorkensis AIP, S-(C-F-L-I-F), reference compound] (H-SCFLIF; thioester 2-C; N-terminus assumed)
agonism or antagonism activity compared to vehicle (FIG. 1B) (10 μM, wild-type reporter or ΔagrD reporter): minimal efficacy
Emax (read-out: Max Activation): 23.6%

CSCC[C@@H]1NC(=O)[C@H](Cc2ccccc2)NC(=O)[C@@H](NC(=O)[C@H](C)N)CSC(=O)[C@H](C(C)C)NC(=O)[C@H](Cc2c[nH]cn2)NC1=O [AIP F5H, A-(C-F-M-H-V)] (H-ACFMHV; thioester 2-C; N-terminus assumed)
Emax [1]: 7.13%

CSCC[C@H]1NC(=O)[C@H](Cc2ccccc2)NC(=O)[C@H](NC(=O)[C@H](C)N)CSC(=O)[C@H](C(C)C)NC(=O)[C@H](Cc2ccccc2)NC1=O [AIP C2dC/M4dM, A-(dC-F-dM-F-V)] (H-A[dC]F[dM]FV; thioester 2-C; N-terminus assumed)
Emax [1]: 35.7%

CSCC[C@@H]1NC(=O)[C@H](Cc2ccccc2)NC(=O)[C@@H](NC(C)=O)CSC(=O)[C@H](C(C)C)NC(=O)[C@H](Cc2ccccc2)NC1=O [Ac-5-mer, Ac-(C-F-M-F-V)] (Ac-CFMFV; thioester 1-C)
Emax (read-out: Max Activation): 75.3%

CC(C)[C@@H]1NC(=O)[C@H](Cc2ccccc2)NC(=O)[C@H](C)NC(=O)[C@H](Cc2ccccc2)NC(=O)[C@@H](NC(=O)[C@H](C)N)CSC1=O [AIP M4A, A-(C-F-A-F-V)] (H-ACFAFV; thioester 2-C; N-terminus assumed)
Emax [1]: 53.5%
EC50 (in words) (ΔagrD reporter): low micromolar range
agonism activity (in words) (ΔagrD reporter): decreased potency and agonism compared to the native AIP

CC[C@H](C)[C@H](N)C(=O)N[C@@H](CC(N)=O)C(=O)N[C@H]1CSC(=O)[C@H](CC(C)C)NC(=O)[C@H](CC(C)C)NC(=O)[C@H](Cc2ccccc2)NC(=O)[C@H](CC(=O)O)NC1=O [Sa AIP-III, I-N-(C-D-F-L-L), reference compound] (H-INCDFLL; thioester 3-C)
Emax (read-out: Max Activation): 11.3%

CSCC[C@@H]1NC(=O)[C@H](Cc2ccccc2)NC(=O)[C@H](NC(=O)[C@H](C)NC(=O)[C@@H](N)CCCCN)CSC(=O)[C@H](C(C)C)NC(=O)[C@H](Cc2ccccc2)NC1=O [7-mer C3dC, K-A-(dC-F-M-F-V)] (H-KA[dC]FMFV; thioester 3-C; N-terminus assumed)
Emax [1]: 7.08%

CC[C@H](C)[C@@H]1NC(=O)[C@H](Cc2ccccc2)NC(=O)[C@H](CC(=O)O)NC(=O)[C@@H](NC(=O)[C@@H](NC(=O)[C@H](CO)NC(=O)[C@@H](N)Cc2ccc(O)cc2)[C@@H](C)O)CSC(=O)[C@H](CCSC)NC1=O [Sa AIP-I, Y-S-T-(C-D-F-I-M), reference compound] (H-YSTCDFIM; thioester 4-C)
Emax (read-out: Max Activation): 12.2%

CC(C)[C@H](NC(=O)[C@H](CO)NC(=O)[C@H](C)N)C(=O)N[C@H]1CSC(=O)[C@H](Cc2ccccc2)NC(=O)[C@H](Cc2ccc(O)cc2)NC(=O)[C@H](C)NC(=O)[C@H](C)NC1=O [Se AIP-I D1AS6A, A-S-V-(C-A-A-Y-F), reference compound] (H-ASVCAAYF; thioester 4-C)
Emax (read-out: Max Activation): 12.4%
